The results in this text go back to patent US9656984B2, “PI3K/AKT/mTOR inhibitors and pharmaceutical uses thereof” (UNIVERSITE DE RENNES 1, priority 2013, dated 2017).

The structures appear in SMILES notation.

`COC(=O)C1=Cc2cc(Br)ccc2OC1c1ccc(Br)cc1` (stereo not drawn) [Compound 55, Methyl-6-Bromo-2-(4-bromophenyl)-2H-chromene-3-carboxylate]: the melting point lay within 118 to 120 °C. Consider `ON=CC1=Cc2cc(Br)ccc2OC1c1ccc(Br)cc1` (stereo not drawn) [Compound 59, 6-Bromo-2-(4-bromophenyl)-2H-chromene-3-carbaldehyde oxime], for which the melting point was 158 to 160 °C.

The molecule `N#CC1=Cc2cc(Br)cc(Br)c2OC1c1ccc(Br)cc1` (stereo not drawn) [Compound 62, 6,8-Dibromo-2-(4-bromophenyl)-2H-chromene-3-carbonitrile] displayed a melting point of 196 to 198 °C. To `O=CC1=Cc2cc(Br)ccc2OC1c1ccc(Br)cc1` (stereo not drawn) [Compound 44, 6-Bromo-2-(4-bromophenyl)-2H-chromene-3-carbaldehyde] belongs 144 to 146 °C; to `O=C(O)C1=Cc2cc(Br)cc(Br)c2OC1c1ccc(Br)cc1` (stereo not drawn) [Compound 54, 6,8-dibromo-2(4-bromophenyl)-2H-chromene-3-carboxylic acid], 256 to 258 °C; to `O=C(O)C1=Cc2cc(Br)ccc2OC1c1ccc(Br)cc1` (stereo not drawn) [Compound 53, 6-bromo-2-(4-bromophenyl)-2H-chromene-3-carboxylic acid], 208 to 210 °C.

What is called melting point is the temperature, or range, at which the solid turns liquid.
